Assay results: patent publication US20220079899A1, “COMPOSITIONS AND METHODS FOR TREATING OCULAR CONDITIONS” (The Regents of the University of California, priority 2019, published 2022)

Test system: calcification in injured hearts of ABCC6-deficient mice
Experiment: Calcification after heart injury in a mouse model of PXE
Assay type: in vivo
Settings: intraperitoneally 1 mcg/daily for 7 days, versus vehicle
Protocol: FIGS. 1A and 1B show calcification in injured hearts in a mouse model of PXE treated with vehicle (A) or ARL67156 (B).
ENPP1 inhibitors attenuate calcification in a mouse model of PXE. Mice genetically deficient in ABCC6 (the causative gene in PXE) were subjected to heart injury, and either (A) vehicle or (B) ARL67156 was administered (intraperitoneally 1 mcg/daily) for 7 days.

Q: CCN(CC)c1ncnc2c1ncn2[C@@H]1O[C@H](COP(=O)(O)OP(=O)(O)C(Br)(Br)P(=O)(O)O)[C@@H](O)[C@H]1O [ARL67156] was tested. Which “calcification in the injured region” value did it give?
A: The value was “significant attenuation of calcification”.
